The values below come from patent publication US20240158446A1, “CYCLIC COMPOUND HAVING SELECTIVE INHIBITORY ACTION ON KRAS OVER HRAS AND NRAS” (CHUGAI SEIYAKU KABUSHIKI KAISHA, priority 2021, published 2024).

In assay [1] the target is GDP-bound NRAS wild-type protein (Homo sapiens, UniProt P01111). Kind of assay: Binding to NRAS by surface plasmon resonance (SPR), Single Cycle Kinetics. The settings on record: for NRAS/KRAS (ratio of KD value for NRAS to KD value for KRAS): SPR, GDP-bound NRAS wild-type protein vs GDP-bound KRAS wild-type protein. In general terms: SPR reads the build-up and loss of mass on a sensor chip optically.

In assay [2] the target is GDP-bound KRAS wild-type protein (Homo sapiens, UniProt P01116). Kind of assay: Binding to KRAS by surface plasmon resonance (SPR), Single Cycle Kinetics. The settings on record: GDP-bound KRAS wild-type protein, read-out: KRAS KD.
Assay [3] has as its system human lung cancer strain NCI-H441.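 Note: cell proliferation inhibition after four days measured by CellTiter-Glo.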
Assay [4] concerns the target GDP-bound HRAS wild-type protein (Homo sapiens, UniProt P01112). Kind of assay: Binding to HRAS by surface plasmon resonance (SPR), Single Cycle Kinetics. The settings on record: for HRAS/KRAS (ratio of KD value for HRAS to KD value for KRAS): SPR, GDP-bound HRAS wild-type protein vs GDP-bound KRAS wild-type protein.
The mark [5] stands for this setting: SPR, Single Cycle Kinetics, 1:1 binding model.

The structures appear in SMILES notation. Read-outs that look alike come from different tables or passages of the source.

GDP-bound KRAS wild-type protein, sequence (P01116 whole entry): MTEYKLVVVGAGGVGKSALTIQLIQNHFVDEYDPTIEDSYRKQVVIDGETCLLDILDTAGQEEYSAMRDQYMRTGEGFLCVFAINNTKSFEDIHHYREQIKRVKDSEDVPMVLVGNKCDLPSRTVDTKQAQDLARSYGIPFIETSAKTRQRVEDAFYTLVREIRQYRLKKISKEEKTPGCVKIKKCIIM
GDP-bound NRAS wild-type protein, sequence (P01111 whole entry): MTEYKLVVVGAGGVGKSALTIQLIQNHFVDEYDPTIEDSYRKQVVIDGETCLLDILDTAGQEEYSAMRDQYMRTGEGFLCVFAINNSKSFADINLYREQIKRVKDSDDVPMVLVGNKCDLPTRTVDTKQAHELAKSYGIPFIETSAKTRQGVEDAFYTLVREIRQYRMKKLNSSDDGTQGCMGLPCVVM
GDP-bound HRAS wild-type protein, sequence (P01112 whole entry): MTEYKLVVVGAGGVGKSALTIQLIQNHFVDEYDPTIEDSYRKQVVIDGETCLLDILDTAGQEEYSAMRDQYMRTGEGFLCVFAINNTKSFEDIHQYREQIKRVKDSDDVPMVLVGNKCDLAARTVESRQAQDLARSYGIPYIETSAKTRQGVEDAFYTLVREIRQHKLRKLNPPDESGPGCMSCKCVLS

Take `CCO[C@@H]1C[C@H]2C(=O)NC3(CC(C)(C)C3)C(=O)N(C)[C@@H](C(CC)CC)C(=O)N(C)[C@H](C(=O)N(C)C)CC(=O)N(C)[C@@H](COC)C(=O)N[C@@H]([C@@H](C)CC)C(=O)N(C)CC(=O)N(C)[C@H]3C/C=C\CCN(C3=O)[C@@H](CC3CCCCC3)C(=O)N(C)CC(=O)N[C@@H](CCc3ccc(C(F)(F)F)c(Cl)c3)C(=O)N2C1` [PP2468]: the “NRAS/KRAS (ratio of KD value for NRAS to KD value for KRAS)” value in assay [1] was “AA (a compound having 20 or more is denoted as AA)”. In addition, the dissociation constant Kd in assay [2] (SPR, Single Cycle Kinetics) is 1.3 nM. Besides, in assay [3], 72.2 nM corresponded to half-maximal inhibition (IC50). The “HRAS/KRAS (ratio of KD value for HRAS to KD value for KRAS)” value in assay [4] was “A (a compound having 10 or more and less than 20 is denoted as A)”.

For `CCC[C@H]1C(=O)N[C@@H]([C@@H](C)CC)C(=O)N(C2CC2)CC(=O)N(C)[C@H]2C/C=C\CCN(C2=O)[C@@H](Cc2ccc(C)cc2)C(=O)N(C)CC(=O)N[C@@H](CCc2ccc(Cl)c(Cl)c2)C(=O)N2C[C@H](OC3CCC3)C[C@H]2C(=O)NC2(CC(C)(C)C2)C(=O)N(C)[C@@H](C2CCCC2)C(=O)N(C)[C@H](C(=O)N(C)C)CC(=O)N1C` [PP2616], the “NRAS/KRAS (ratio of KD value with respect to GDP-bound NRAS wild-type protein to KD value with respect to KRAS)” value in assay [1] (SPR KD ratio NRAS/KRAS, class symbols) is “A (a compound having 10 or more and less than 20 is denoted as A)”. Further, the equilibrium dissociation constant (Kd) in assay [2] (SPR Single Cycle Kinetics, 1:1 binding model) stood at 0.8 nM. In assay [3], this compound had an IC50 of 66.4 nM. In assay [4] (SPR KD ratio HRAS/KRAS, class symbols), the “HRAS/KRAS (ratio of KD value with respect to GDP-bound HRAS wild-type protein to KD value with respect to KRAS)” value is “A (a compound having 10 or more and less than 20 is denoted as A)”.

With `CCO[C@@H]1C[C@H]2C(=O)NC3(CCC3)C(=O)N(C)[C@@H](C3CCCC3)C(=O)N(C)[C@H](C(=O)N(C)C)CC(=O)N(C)[C@@H](COCC(F)(F)F)C(=O)N[C@@H]([C@@H](C)CC)C(=O)N(C)CC(=O)N(C)[C@H]3C/C=C\CCN(C3=O)[C@@H](Cc3ccc(C(F)(F)F)cc3)C(=O)N(C)CC(=O)N[C@@H](CCc3cc(F)c(C(F)(F)F)c(F)c3)C(=O)N2C1` [PP1267], the “NRAS/KRAS (ratio of KD value for NRAS to KD value for KRAS)” value in assay [1] (KD ratio class) was “A (a compound having 10 or more and less than 20 is denoted as A)”. In assay [2] (setting [5]), the equilibrium dissociation constant (Kd) stood at 0.046 nM. This compound also yielded a 50% inhibitory concentration (IC50) in assay [3] of 10.8 nM. Moreover, the “HRAS/KRAS (ratio of KD value for HRAS to KD value for KRAS)” value in assay [4] (KD ratio class) is “A (a compound having 10 or more and less than 20 is denoted as A)”.

As for `CCO[C@@H]1C[C@H]2C(=O)NC3(CCC3)C(=O)N(C)[C@@H](C3CCCC3)C(=O)N(C)[C@H](C(=O)N(C)C)CC(=O)N(C)[C@@H](CC3CC3)C(=O)N[C@@H]([C@@H](C)CC)C(=O)N(C)CC(=O)N(C)[C@H]3C/C=C\CCN(C3=O)[C@@H](Cc3ccc(C(F)(F)F)cc3)C(=O)N(C)CC(=O)N[C@@H](CCc3ccc(Cl)c(Cl)c3)C(=O)N2C1` [PP1253, (2S,8S,12R,14S,20S,23S,27S,30S,36S,38Z)-20-cyclopentyl-27-(cyclopropylmethyl)-8-[2-(3,4-dichlorophenyl)ethyl]-12-ethoxy-N,N,4,19,22,26,32,35-octamethyl-30-[(1S)-1-methylpropyl]-3,6,9,15,18,21,25,28,31,34,42-undecaoxo-2-[[4-(trifluoromethyl)phenyl]methyl]spiro[1,4,7,10,16,19,22,26,29,32,35-undecazatricyclo[34.5.1.0^10,14]dotetracont-38-ene-17,1′-cyclobutane]-23-carboxamide], the “NRAS/KRAS (ratio of KD value for NRAS to KD value for KRAS)” value in assay [1] (KD ratio class) is “A (a compound having 10 or more and less than 20 is denoted as A)”. Besides, in assay [2] (setting [5]), the Kd stood at 0.2 nM. This compound displayed a concentration for half-maximal inhibition (IC50) in assay [3] of 22.2 nM. For the same compound, the “HRAS/KRAS (ratio of KD value for HRAS to KD value for KRAS)” value in assay [4] (KD ratio class) is “A (a compound having 10 or more and less than 20 is denoted as A)”.

On to `CCO[C@@H]1C[C@H]2C(=O)NC3(CC(C)(C)C3)C(=O)N(C)[C@@H](C(CC)CC)C(=O)N(C)[C@H](C(=O)N(C)C)CC(=O)N(C)[C@@H](CC3CC3)C(=O)N[C@@H]([C@@H](C)CC)C(=O)N(C)CC(=O)N(C)[C@H]3C/C=C\CCN(C3=O)[C@@H](CC3CCC(F)(F)CC3)C(=O)N(C)CC(=O)N[C@@H](CCc3ccc(C(F)(F)F)c(Cl)c3)C(=O)N2C1` [PP2495], for which the “NRAS/KRAS (ratio of KD value for NRAS to KD value for KRAS)” value in assay [1] is “A (a compound having 10 or more and less than 20 is denoted as A)”. Also, the equilibrium dissociation constant (Kd) in assay [2] (SPR, Single Cycle Kinetics) was found to be 0.84 nM. The same compound showed an IC50 in assay [3] of 17.4 nM. Besides, the “HRAS/KRAS (ratio of KD value for HRAS to KD value for KRAS)” value in assay [4] is “A (a compound having 10 or more and less than 20 is denoted as A)”.

What is called Kd is a measure of binding affinity in units of concentration. In general, IC50 refers to the concentration that inhibits the measured activity by half.
